Publication PMC11410943 (Nature Communications, 2024)
Converted amounts (≈) assume the structure as drawn. Where two headings read alike, the source gives them in different places.

Legend:
E. coli gyrase = E. coli gyrase (Escherichia coli, UniProt P0AES4); test: E. coli gyrase supercoiling inhibition; format: biochemical
E. coli topoisomerase IV = E. coli topoisomerase IV (Escherichia coli, UniProt P0AFI2); test: E. coli topoisomerase IV decatenation inhibition; format: biochemical
Enterobacter cloacae = test: MIC; settings: IHMA/CARB-X MDR clinical isolates 2019, N=152
Acinetobacter baumannii = test: MIC; settings: IHMA/CARB-X MDR clinical isolates 2019, N=298
Citrobacter spp. = test: MIC
Morganella morganii = test: MIC; settings: IHMA/CARB-X MDR clinical isolates 2019, N=42
Pseudomonas aeruginosa = test: MIC
Proteus spp. = test: MIC
Klebsiella pneumoniae = test: MIC
Escherichia coli = test: MIC
Neisseria gonorrhoeae = test: MIC; settings: IHMA/CARB-X isolates 1997 to 2021, N=90
hERG K+ channel = hERG K+ channel (Homo sapiens, UniProt Q12809); test: hERG automated patch-clamp; format: cell-based
[1] = system: MDR Gram-negative and Gram-positive pathogens; test: MIC
Serratia marcescens = test: MIC; settings: IHMA/CARB-X MDR clinical isolates 2019, N=45
[2] = system: Stenotrophomonas maltophilia; test: MIC; settings: IHMA/CARB-X MDR clinical isolates 2019, N=150
[3] = IHMA/CARB-X MDR clinical isolates 2019, N=300

Chain of E. coli gyrase (P0AES4 whole entry): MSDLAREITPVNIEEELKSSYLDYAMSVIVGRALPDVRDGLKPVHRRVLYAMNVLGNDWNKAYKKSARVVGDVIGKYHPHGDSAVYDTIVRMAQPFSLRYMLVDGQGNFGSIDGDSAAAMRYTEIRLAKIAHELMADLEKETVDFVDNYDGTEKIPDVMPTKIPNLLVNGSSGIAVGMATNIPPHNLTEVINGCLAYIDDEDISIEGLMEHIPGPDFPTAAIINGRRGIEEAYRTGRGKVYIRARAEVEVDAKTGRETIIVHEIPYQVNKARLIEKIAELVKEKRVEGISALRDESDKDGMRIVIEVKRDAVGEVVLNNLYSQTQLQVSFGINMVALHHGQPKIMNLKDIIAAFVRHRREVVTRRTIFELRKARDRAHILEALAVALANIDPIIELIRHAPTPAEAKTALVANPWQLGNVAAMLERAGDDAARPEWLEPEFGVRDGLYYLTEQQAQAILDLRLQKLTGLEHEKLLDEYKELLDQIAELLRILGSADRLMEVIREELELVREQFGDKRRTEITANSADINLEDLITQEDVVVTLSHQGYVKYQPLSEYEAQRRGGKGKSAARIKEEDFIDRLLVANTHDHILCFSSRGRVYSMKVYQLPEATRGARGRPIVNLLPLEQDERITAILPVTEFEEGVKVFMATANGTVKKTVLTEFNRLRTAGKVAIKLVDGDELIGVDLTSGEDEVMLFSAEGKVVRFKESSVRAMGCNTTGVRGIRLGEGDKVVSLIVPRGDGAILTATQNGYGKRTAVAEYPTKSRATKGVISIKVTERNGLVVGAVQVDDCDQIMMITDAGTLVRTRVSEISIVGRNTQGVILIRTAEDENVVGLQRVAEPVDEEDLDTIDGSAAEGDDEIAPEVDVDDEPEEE
Chain of E. coli topoisomerase IV (P0AFI2 whole entry): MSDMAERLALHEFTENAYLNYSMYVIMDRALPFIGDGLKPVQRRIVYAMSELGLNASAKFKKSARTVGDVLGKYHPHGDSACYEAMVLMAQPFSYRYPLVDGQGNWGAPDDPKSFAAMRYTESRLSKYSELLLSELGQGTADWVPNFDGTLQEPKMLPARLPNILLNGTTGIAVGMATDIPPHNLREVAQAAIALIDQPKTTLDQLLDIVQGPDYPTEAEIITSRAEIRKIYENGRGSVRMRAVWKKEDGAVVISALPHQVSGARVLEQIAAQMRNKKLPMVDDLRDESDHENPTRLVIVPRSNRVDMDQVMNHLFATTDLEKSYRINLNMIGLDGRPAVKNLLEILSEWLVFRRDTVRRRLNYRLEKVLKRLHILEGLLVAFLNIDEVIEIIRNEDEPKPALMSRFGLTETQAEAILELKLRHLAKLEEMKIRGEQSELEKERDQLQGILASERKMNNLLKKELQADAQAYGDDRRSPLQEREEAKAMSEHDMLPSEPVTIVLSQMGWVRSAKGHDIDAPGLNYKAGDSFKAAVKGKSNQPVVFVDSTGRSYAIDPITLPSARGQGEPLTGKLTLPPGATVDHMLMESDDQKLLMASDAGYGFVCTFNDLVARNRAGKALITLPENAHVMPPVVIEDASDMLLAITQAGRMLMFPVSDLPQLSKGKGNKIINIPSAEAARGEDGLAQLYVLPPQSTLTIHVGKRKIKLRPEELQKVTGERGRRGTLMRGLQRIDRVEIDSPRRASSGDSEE
Chain of E. coli topoisomerase IV (P20083 whole entry partner): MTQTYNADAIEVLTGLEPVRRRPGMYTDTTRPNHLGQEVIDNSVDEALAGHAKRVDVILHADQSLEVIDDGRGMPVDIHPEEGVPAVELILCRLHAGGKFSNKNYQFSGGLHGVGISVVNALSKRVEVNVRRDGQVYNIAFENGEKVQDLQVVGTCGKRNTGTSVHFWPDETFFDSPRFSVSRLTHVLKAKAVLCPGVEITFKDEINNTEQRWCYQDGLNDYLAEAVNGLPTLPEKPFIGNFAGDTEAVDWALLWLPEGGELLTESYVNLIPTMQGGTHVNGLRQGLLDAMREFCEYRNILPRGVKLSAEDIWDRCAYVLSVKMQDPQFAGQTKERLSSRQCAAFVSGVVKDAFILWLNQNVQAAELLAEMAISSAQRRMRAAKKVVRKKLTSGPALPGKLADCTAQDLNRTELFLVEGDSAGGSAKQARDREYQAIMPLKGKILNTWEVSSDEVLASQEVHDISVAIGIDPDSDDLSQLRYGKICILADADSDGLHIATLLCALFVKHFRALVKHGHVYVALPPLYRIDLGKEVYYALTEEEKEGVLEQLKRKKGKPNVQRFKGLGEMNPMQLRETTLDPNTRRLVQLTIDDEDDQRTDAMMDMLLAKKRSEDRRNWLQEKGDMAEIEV
Chain of hERG K+ channel (Q12809 whole entry): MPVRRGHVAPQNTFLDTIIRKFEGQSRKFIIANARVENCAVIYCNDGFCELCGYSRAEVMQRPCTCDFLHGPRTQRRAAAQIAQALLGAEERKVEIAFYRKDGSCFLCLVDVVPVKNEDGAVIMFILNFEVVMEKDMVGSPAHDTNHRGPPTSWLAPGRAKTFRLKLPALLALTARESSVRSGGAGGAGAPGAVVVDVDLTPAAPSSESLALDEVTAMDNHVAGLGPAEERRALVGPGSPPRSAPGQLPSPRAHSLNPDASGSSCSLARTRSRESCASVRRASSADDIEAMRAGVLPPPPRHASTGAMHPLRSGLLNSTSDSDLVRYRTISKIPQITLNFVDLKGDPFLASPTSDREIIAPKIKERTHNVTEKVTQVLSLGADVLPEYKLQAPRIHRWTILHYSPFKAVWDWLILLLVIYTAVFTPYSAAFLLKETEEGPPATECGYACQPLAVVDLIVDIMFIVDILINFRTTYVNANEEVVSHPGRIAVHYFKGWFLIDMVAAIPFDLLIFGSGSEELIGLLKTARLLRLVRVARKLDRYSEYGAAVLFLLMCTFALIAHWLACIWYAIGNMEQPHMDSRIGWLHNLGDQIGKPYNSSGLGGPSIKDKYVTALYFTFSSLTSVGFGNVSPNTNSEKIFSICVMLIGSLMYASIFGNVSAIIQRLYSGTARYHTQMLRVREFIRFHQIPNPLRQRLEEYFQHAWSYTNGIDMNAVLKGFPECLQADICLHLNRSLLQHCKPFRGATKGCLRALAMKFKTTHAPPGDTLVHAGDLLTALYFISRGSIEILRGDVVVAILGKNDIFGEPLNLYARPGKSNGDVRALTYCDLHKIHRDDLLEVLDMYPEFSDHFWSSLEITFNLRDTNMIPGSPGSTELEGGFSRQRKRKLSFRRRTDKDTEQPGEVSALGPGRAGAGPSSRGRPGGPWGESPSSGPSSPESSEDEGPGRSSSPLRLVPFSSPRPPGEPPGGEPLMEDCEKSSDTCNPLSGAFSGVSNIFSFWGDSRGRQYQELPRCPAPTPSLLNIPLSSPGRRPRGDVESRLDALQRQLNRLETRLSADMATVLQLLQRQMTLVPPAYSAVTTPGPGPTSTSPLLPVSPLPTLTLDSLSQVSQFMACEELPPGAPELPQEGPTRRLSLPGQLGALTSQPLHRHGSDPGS

For `CN1C(=O)Cc2ccc(F)c(CCNCC[C@H]3CN(c4ccc5c(n4)NC(=O)CO5)C(=O)O3)c21` [Compound 3, 6-[(5S)−5-[2-[[2-(6-fluoro-2,3-dihydro-1-methyl-2-oxo-1H-indol-7-yl)ethyl]amino]ethyl]−2-oxo-3-oxazolidinyl]−2H-pyrido[3,2-b]−1,4-oxazin-3(4H)-one], the “improvement in gyrase supercoiling and topoIV decatenation IC50 over compound 1” value (E. coli gyrase) was over 100 fold and the IC50 (E. coli topoisomerase IV) was 0.36 µM.
`CN1C(=O)Cc2ccc(F)c(CNCCCC3CN(c4ccc5c(n4)NC(=O)CO5)C(=O)O3)c21` (centres unmarked) [Compound 2, 6-[5-[3-[[(6-Fluoro-2,3-dihydro-1-methyl-2-oxo-1H-indol-7-yl)methyl]amino]propyl]−2-oxo-3-oxazolidinyl]−2H-pyrido[3,2-b]−1,4-oxazin-3(4H)-one] was tested, and the “improvement in gyrase supercoiling and topoIV decatenation IC50 over compound 1” value (E. coli gyrase) was over 100 fold.
In the case of `CN1C(=O)Cc2ccc(F)c(CCNC[C@H]3CN(c4ccc5c(n4)NC(=O)CO5)C(=O)O3)c21` [Compound 4, (S)−6-(5-(((2-(6-fluoro-1-methyl-2-oxoindolin-7-yl)ethyl)amino)methyl)−2-oxooxazolidin-3-yl)−2H-pyrido[3,2-b] [1,4] oxazin-3(4H)-one], the IC50 (E. coli gyrase) is reported as 0.036 µM and the IC50 (E. coli topoisomerase IV) is reported as 0.057 µM.
In the case of `CNC(C)C1CCC(N)C(OC2C(N)CC(N)C(OC3OCC(C)(O)C(NC)C3O)C2O)O1` (centres unmarked) [Gentamicin], the MIC90 (Enterobacter cloacae; Enterobacter cloacae) is reported as 1 µg/mL (≈ 2.09 µM), the MIC90 (Acinetobacter baumannii; Acinetobacter baumannii) is reported as over 32 µg/mL and the MIC90 (Citrobacter spp.; Citrobacter) is reported as 8 µg/mL (≈ 16.8 µM). It also gave an MIC90 (Morganella morganii; Morganella morganii) of 64 µg/mL (≈ 134 µM), an MIC90 (Pseudomonas aeruginosa; Pseudomonas aeruginosa) of over 32 µg/mL and an MIC90 (Proteus spp.) of 16 µg/mL (≈ 33.5 µM). The MIC90 (Klebsiella pneumoniae; Klebsiella pneumoniae) was over 32 µg/mL and the MIC90 (Escherichia coli; Escherichia coli) was over 32 µg/mL.
`CO/N=C(\C(=O)N[C@@H]1C(=O)N2C(C(=O)O)=C(CSc3nc(=O)c(=O)[nH]n3C)CS[C@H]12)c1csc(N)n1` [Ceftriaxone] showed an MIC90 (Neisseria gonorrhoeae) of 0.06 µg/mL (≈ 0.108 µM).
With `CO/N=C(\C(=O)N[C@@H]1C(=O)N2C(C(=O)[O-])=C(C[N+]3(C)CCCC3)CS[C@H]12)c1csc(N)n1` [Cefepime] the MIC90 (Acinetobacter baumannii; Acinetobacter baumannii) was over 32 µg/mL, the MIC90 (Citrobacter spp.; Citrobacter) was over 32 µg/mL and the MIC90 (Morganella morganii; Morganella morganii) was over 32 µg/mL. For the same molecule, the MIC90 (Pseudomonas aeruginosa; Pseudomonas aeruginosa) was over 32 µg/mL, the MIC90 (Proteus spp.) was 16 µg/mL (≈ 33.3 µM) and the MIC90 (Klebsiella pneumoniae; Klebsiella pneumoniae) was over 32 µg/mL. For the same molecule, the MIC90 (Escherichia coli; Escherichia coli) was over 32 µg/mL.
In the case of `Cn1c(=O)ccc2ccc(F)c(CCNC[C@@H]3CN(c4cnc5c(n4)NC(=O)CO5)C(=O)O3)c21` [Compound 8, 6-[(5 R)−5-[[[2-(7-Fluoro-1,2-dihydro-1-methyl-2-oxo-8-quinolinyl)ethyl]amino]methyl]−2-oxo-3-oxazolidinyl]−2H-pyrazino[2,3-b]−1,4-oxazin-3(4H)-one], the IC50 (hERG K+ channel) is reported as 60 µM.
With `C[C@H]1[C@H](NC(=O)/C(=N\OC(C)(C)C(=O)O)c2csc(N)n2)C(=O)N1S(=O)(=O)O` [Aztreonam] the MIC90 (Citrobacter spp.; Citrobacter) was 64 µg/mL (≈ 147 µM), the MIC90 (Morganella morganii; Morganella morganii) was 16 µg/mL (≈ 36.7 µM) and the MIC90 (Pseudomonas aeruginosa; Pseudomonas aeruginosa) was over 16 µg/mL. The MIC90 (Proteus spp.) was 0.5 µg/mL (≈ 1.15 µM), the MIC90 (Klebsiella pneumoniae; Klebsiella pneumoniae) was over 64 µg/mL and the MIC90 (Escherichia coli; Escherichia coli) was over 64 µg/mL.
In the case of `NCCCC1CN(c2ccc3c(n2)NC(=O)CO3)C(=O)O1` (centres unmarked) [Compound 1, 6-[5-(3-Aminopropyl)−2-oxo-3-oxazolidinyl]−2H-pyrido[3,2-b]−1,4-oxazin-3(4H)-one], the IC50 (E. coli gyrase) is reported as 13.2 µM, the IC50 (E. coli topoisomerase IV) is reported as 27 µM and the MIC [1] is reported as 80 to 160 µg/mL (≈ 274 to 547 µM).
Work on Ceftazidime-Avibactam yielded an MIC90 (Enterobacter cloacae) of 2 µg/mL, an MIC90 (Citrobacter spp.; IHMA/CARB-X MDR clinical isolates 2019, N=151) of 0.5 µg/mL and an MIC90 (Serratia marcescens) of 1 µg/mL. The MIC90 (Morganella morganii) was 0.125 µg/mL, the MIC90 (Pseudomonas aeruginosa; [3]) was over 16 µg/mL and the MIC90 (Proteus spp.; IHMA/CARB-X MDR clinical isolates 2019, N=152) was 0.06 µg/mL. The MIC90 (Klebsiella pneumoniae; [3]) was 1 µg/mL and the MIC90 (Escherichia coli; [3]) was 0.25 µg/mL.
`CC(C)(O/N=C(\C(=O)N[C@@H]1C(=O)N2C(C(=O)[O-])=C(C[N+]3(CCNC(=O)c4ccc(O)c(O)c4Cl)CCCC3)CS[C@H]12)c1csc(N)n1)C(=O)O` [Cefiderocol] gave an MIC90 (Enterobacter cloacae; Enterobacter cloacae) of 4 µg/mL (≈ 5.32 µM), an MIC90 (Acinetobacter baumannii; Acinetobacter baumannii) of 4 µg/mL (≈ 5.32 µM) and an MIC90 (Citrobacter spp.; Citrobacter) of 2 µg/mL (≈ 2.66 µM). It also gave an MIC90 (Morganella morganii; Morganella morganii) of 1 µg/mL (≈ 1.33 µM), an MIC90 (Pseudomonas aeruginosa; Pseudomonas aeruginosa) of 2 µg/mL (≈ 2.66 µM) and an MIC90 (Proteus spp.) of 0.5 µg/mL (≈ 0.665 µM). The MIC90 (Klebsiella pneumoniae; Klebsiella pneumoniae) was 2 µg/mL (≈ 2.66 µM) and the MIC90 (Escherichia coli; Escherichia coli) was 2 µg/mL (≈ 2.66 µM).
Piperacillin/Tazobactam gave an MIC90 (Enterobacter cloacae) of 0.06 µg/mL, an MIC90 (Acinetobacter baumannii) of over 128 µg/mL and an MIC90 (Pseudomonas aeruginosa; [3]) of 128 µg/mL. For the same molecule, the MIC90 [2] was over 128 µg/mL.
Molecule `NC[C@H]1O[C@H](O[C@H]2[C@H](O)[C@@H](O[C@H]3O[C@H](CO)[C@@H](O)[C@H](N)[C@H]3O)[C@H](N)C[C@@H]2N)[C@H](N)C[C@@H]1O` [Tobramycin] has an MIC90 (Enterobacter cloacae; Enterobacter cloacae) of 32 µg/mL (≈ 68.4 µM), an MIC90 (Acinetobacter baumannii; Acinetobacter baumannii) of over 32 µg/mL and an MIC90 (Citrobacter spp.; Citrobacter) of 8 µg/mL (≈ 17.1 µM). It also gave an MIC90 (Morganella morganii; Morganella morganii) of 16 µg/mL (≈ 34.2 µM), an MIC90 (Pseudomonas aeruginosa; Pseudomonas aeruginosa) of over 32 µg/mL and an MIC90 (Proteus spp.) of 8 µg/mL (≈ 17.1 µM). For the same molecule, the MIC90 (Klebsiella pneumoniae; Klebsiella pneumoniae) was over 32 µg/mL and the MIC90 (Escherichia coli; Escherichia coli) was 16 µg/mL (≈ 34.2 µM).
